Source: article PMC6315362, “Cytotoxic Potential of the Novel Horseshoe Crab Peptide Polyphemusin III” (Marine Drugs, 2018)
Where no end group is shown, it is not given here.

Columns and labels:
[1] = system: Gram-negative and Gram-positive bacteria; conditions: synthetic PM I against Gram-negative and Gram-positive bacteria; cited from earlier work
Description: Our experimental data for the obtained recombinant PM I are in line with those obtained earlier for synthetic PM I against Gram-negative and Gram-positive bacteria (with reported MICs not exceeding 1 μM).

HL-60 cells = assay: Annexin V-FITC/propidium iodide double staining and flow cytometry; type: cell-based, human; conditions: HL-60, 4 h of incubation, 50 μM Z-VAD-FMK
Source text: To further investigate the effect of PM III on human cells, we performed annexin V-FITC/propidium iodide double staining with subsequent flow cytometric analysis. Annexin V-FITC binds to phosphatidylserine, which is exposed on the outer leaflet of the cellular plasma membrane at the initial stages of apoptosis, whereas propidium iodide (PI) preferentially stains nuclei of dead cells. Therefore, a combination of annexin V-FITC and PI assays allows differentiation between early apoptotic and late apoptotic/necrotic cell populations. PM III was used at two final concentrations of 2.5 and 5 μM. In order to elucidate the predominant mechanism of the PM III action, we applied a widely used caspase inhibitor, Z-VAD-FMK [23].
Cell death analysis with fluorescein isothiocyanate conjugated annexin V (annexin V-FITC)/propidium iodide double staining and dead cells counting with flow cytometry were performed 4 h after addition of polyphemusin III up to a final concentration of 2.5 or 5 μM. The Annexin V-FITC Apoptosis Detection Kit (BD Biosciences, Franklin Lakes, NJ, USA) was used according to the manufacturer’s protocol on a NovoCyte flow cytometer (ACEA Biosciences, San Diego, CA, USA). Each experiment was performed in triplicate. The apoptosis inducer camptothecin (Sigma-Aldrich, St. Louis, MO, USA) and the general caspase inhibitor, Z-VAD-FMK (BD Biosciences, Franklin Lakes, NJ, USA), were used. All flow cytometry experiments were performed twice.

In the case of “synthetic PM I: synthetic polyphemusin I of earlier reports (RRWCFRVCYRGFCYRKCR; ends and bridges not checked; cysteine pairing not given here; UniProt P14215 1-18, looked up)”, the MICs [1] is given as at most 1 µM.
For `CC[C@@]1(O)C(=O)OCc2c1cc1n(c2=O)Cc2cc3ccccc3nc2-1` [campthotecin, camptothecin], the “influence of the caspase inhibitor Z-VAD-FMK on the effect of the substance (annexin V-FITC/PI staining)” value (HL-60 cells) was “totally abrogated”.
